Data as given in the supplement of paper PMC10883282.
± gives the standard deviation of the averaged measurements.

Assays:
Experiment in all cases: relative viability vs DMSO control (72 h) (fraction); higher = more viable cells
SW872 = system: SW872
Summary of the method: (§1)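 Serially diluted compound, 2.5 µl from source plates spanning 10 mM to 0.0002 mM, was added 24 h after sarcoma cell lines were seeded in 384-well plates at densities targeting 80–90% confluence. Plates then sat 72 h at 37 °C, 5% CO2, with 0.1% DMSO vehicle and a 5 µM positive control. Relative viability came from ATPLite as percent growth, averaged over up to triplicate wells, and was rescaled with 1 as full and 0 as none.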

A204 = system: A204
Summary of the method: as §1

SYO-1 = system: SYO-1
Summary of the method: as §1

SK-ES-1 = system: SK-ES-1
Summary of the method: as §1

SW982 = system: SW982
Summary of the method: as §1

HS729 = system: HS729
Summary of the method: as §1

KHOS-240S = system: KHOS-240S
Summary of the method: as §1

SW1353 = system: SW1353
Summary of the method: as §1

G401 = system: G401
Summary of the method: as §1

SW684 = system: SW684
Summary of the method: as §1

MES-SA = system: MES-SA
Summary of the method: as §1

SK-LMS-1 = system: SK-LMS-1
Summary of the method: as §1

C=CC(=O)Nc1cc(Nc2nccc(-c3cn(C)c4ccccc34)n2)c(OC)cc1N(C)CCN(C)C [Osimertinib]
Conditions | relative viability
A204, 0.00017 µM | 1.03 ± 0.094
A204, 0.00051 µM | 1.04 ± 0.089
A204, 0.00152 µM | 1.05 ± 0.1
A204, 0.00457 µM | 1.04 ± 0.034
A204, 0.01372 µM | 1.01 ± 0.055
A204, 0.04115 µM | 1.03 ± 0.07
A204, 0.1235 µM | 1.03 ± 0.023
A204, 0.3704 µM | 0.9068 ± 0.0048
A204, 1.111 µM | 0.777 ± 0.051
A204, 3.333 µM | 0.582 ± 0.12
A204, 10 µM | 0.141 ± 0.073
G401, 0.00017 µM | 1.01 ± 0.012
G401, 0.00051 µM | 1.02 ± 0.036
G401, 0.00152 µM | 1.03 ± 0.065
G401, 0.00457 µM | 1.03 ± 0.024
G401, 0.01372 µM | 1.02 ± 0.015
G401, 0.04115 µM | 0.976 ± 0.025
G401, 0.1235 µM | 0.962 ± 0.043
G401, 0.3704 µM | 0.87 ± 0.042
G401, 1.111 µM | 0.816 ± 0.033
G401, 3.333 µM | 0.711 ± 0.041
G401, 10 µM | 0.0893 ± 0.013
HS729, 0.00017 µM | 1.06 ± 0.013
HS729, 0.00051 µM | 0.954 ± 0.031
HS729, 0.00152 µM | 1.04 ± 0.016
HS729, 0.00457 µM | 0.976 ± 0.072
HS729, 0.01372 µM | 0.944 ± 0.017
HS729, 0.04115 µM | 0.933 ± 0.035
HS729, 0.1235 µM | 0.907 ± 0.014
HS729, 0.3704 µM | 0.822 ± 0.023
HS729, 1.111 µM | 0.78 ± 0.075
HS729, 3.333 µM | 0.681 ± 0.033
HS729, 10 µM | 0.533 ± 0.036
KHOS-240S, 0.00017 µM | 1.05 ± 0.031
KHOS-240S, 0.00051 µM | 1.06 ± 0.042
KHOS-240S, 0.00152 µM | 1.06 ± 0.041
KHOS-240S, 0.00457 µM | 1.08 ± 0.052
KHOS-240S, 0.01372 µM | 1.04 ± 0.042
KHOS-240S, 0.04115 µM | 1.05 ± 0.034
KHOS-240S, 0.1235 µM | 1.05 ± 0.043
KHOS-240S, 0.3704 µM | 1.03 ± 0.042
KHOS-240S, 1.111 µM | 0.926 ± 0.087
KHOS-240S, 3.333 µM | 0.767 ± 0.032
KHOS-240S, 10 µM | 0.167 ± 0.019
MES-SA, 0.00017 µM | 0.979 ± 0.015
MES-SA, 0.00051 µM | 0.947 ± 0.015
MES-SA, 0.00152 µM | 0.961 ± 0.03
MES-SA, 0.00457 µM | 0.932 ± 0.067
MES-SA, 0.01372 µM | 0.97 ± 0.015
MES-SA, 0.04115 µM | 0.941 ± 0.043
MES-SA, 0.1235 µM | 0.948 ± 0.024
MES-SA, 0.3704 µM | 0.882 ± 0.011
MES-SA, 1.111 µM | 0.758 ± 0.016
MES-SA, 3.333 µM | 0.569 ± 0.037
MES-SA, 10 µM | 0.29 ± 0.0034
SK-ES-1, 0.00017 µM | 1 ± 0.063
SK-ES-1, 0.00051 µM | 1.05 ± 0.019
SK-ES-1, 0.00152 µM | 1.07 ± 0.014
SK-ES-1, 0.00457 µM | 1.01 ± 0.041
SK-ES-1, 0.01372 µM | 1.02 ± 0.075
SK-ES-1, 0.04115 µM | 1.026 ± 0.0092
SK-ES-1, 0.1235 µM | 1 ± 0.053
SK-ES-1, 0.3704 µM | 0.942 ± 0.041
SK-ES-1, 1.111 µM | 0.762 ± 0.052
SK-ES-1, 3.333 µM | 0.294 ± 0.011
SK-ES-1, 10 µM | 0.011 ± 0.0004
SK-LMS-1, 0.00017 µM | 1.1 ± 0.059
SK-LMS-1, 0.00051 µM | 1.1 ± 0.063
SK-LMS-1, 0.00152 µM | 1.08 ± 0.033
SK-LMS-1, 0.00457 µM | 1.07 ± 0.052
SK-LMS-1, 0.01372 µM | 1.06 ± 0.013
SK-LMS-1, 0.04115 µM | 1.03 ± 0.018
SK-LMS-1, 0.1235 µM | 1.07 ± 0.036
SK-LMS-1, 0.3704 µM | 1.02 ± 0.015
SK-LMS-1, 1.111 µM | 0.972 ± 0.046
SK-LMS-1, 3.333 µM | 0.776 ± 0.0093
SK-LMS-1, 10 µM | 0.032 ± 0.0068
SW684, 0.00017 µM | 1.11 ± 0.045
SW684, 0.00051 µM | 1.18 ± 0.029
SW684, 0.00152 µM | 1.21 ± 0.034
SW684, 0.00457 µM | 1.2 ± 0.054
SW684, 0.01372 µM | 1.16 ± 0.068
SW684, 0.04115 µM | 1.13 ± 0.067
SW684, 0.1235 µM | 1.13 ± 0.11
SW684, 0.3704 µM | 1.12 ± 0.046
SW684, 1.111 µM | 1.11 ± 0.022
SW684, 3.333 µM | 0.984 ± 0.035
SW684, 10 µM | 0.063 ± 0.026
SW872, 0.00017 µM | 1.078 ± 0.0031
SW872, 0.00051 µM | 1.06 ± 0.021
SW872, 0.00152 µM | 1.06 ± 0.031
SW872, 0.00457 µM | 1.08 ± 0.011
SW872, 0.01372 µM | 1.04 ± 0.047
SW872, 0.04115 µM | 1.02 ± 0.054
SW872, 0.1235 µM | 1.03 ± 0.035
SW872, 0.3704 µM | 0.988 ± 0.058
SW872, 1.111 µM | 0.894 ± 0.054
SW872, 3.333 µM | 0.761 ± 0.039
SW872, 10 µM | 0.384 ± 0.06
SW982, 0.00017 µM | 1.02 ± 0.032
SW982, 0.00051 µM | 1.05 ± 0.017
SW982, 0.00152 µM | 1.01 ± 0.015
SW982, 0.00457 µM | 1.03 ± 0.012
SW982, 0.01372 µM | 1.04 ± 0.017
SW982, 0.04115 µM | 1.03 ± 0.018
SW982, 0.1235 µM | 0.996 ± 0.028
SW982, 0.3704 µM | 0.983 ± 0.067
SW982, 1.111 µM | 0.881 ± 0.088
SW982, 3.333 µM | 0.678 ± 0.14
SW982, 10 µM | 0.017 ± 0.0011
SW1353, 0.00017 µM | 1.014 ± 0.005
SW1353, 0.00051 µM | 1.007 ± 0.0033
SW1353, 0.00152 µM | 1.002 ± 0.01
SW1353, 0.00457 µM | 1 ± 0.019
SW1353, 0.01372 µM | 0.97 ± 0.022
SW1353, 0.04115 µM | 0.96 ± 0.061
SW1353, 0.1235 µM | 0.9 ± 0.044
SW1353, 0.3704 µM | 0.82 ± 0.061
SW1353, 1.111 µM | 0.8 ± 0.018
SW1353, 3.333 µM | 0.742 ± 0.055
SW1353, 10 µM | 0.0174 ± 0.011
SYO-1, 0.00017 µM | 1.02 ± 0.069
SYO-1, 0.00051 µM | 0.992 ± 0.022
SYO-1, 0.00152 µM | 0.969 ± 0.074
SYO-1, 0.00457 µM | 0.971 ± 0.052
SYO-1, 0.01372 µM | 0.935 ± 0.056
SYO-1, 0.04115 µM | 0.9 ± 0.072
SYO-1, 0.1235 µM | 0.847 ± 0.06
SYO-1, 0.3704 µM | 0.713 ± 0.075
SYO-1, 1.111 µM | 0.576 ± 0.055
SYO-1, 3.333 µM | 0.418 ± 0.021
SYO-1, 10 µM | -0.0037 ± 0.0023
